Test results from paper PMC3355094 (PLoS Pathogens, 2012).
Several values for one entry are separate records, joined by “and”; a condition that tells them apart may be missing. Identical values can stand only once. Like-named read-outs stand apart in the source and are kept apart here.

Assays:
Jacalin = assay: Literature thermodynamic binding data of lectin-carbohydrate interactions compiled in Table S6 for comparison; conditions not given; parameters: method as in values quoted from other papers; conditions: read-out: KD [μmol]; cited from earlier work
RSL = assay type: binding; conditions: read-out: KD [μmol]; cited from earlier work
CCL2 = assay: Glycan array analysis of CCL2 (CFG mammalian glycan array V3.1); assay type: binding, Coprinopsis cinerea; conditions: Alexa Fluor 488 labeled CCL2 200 µg/ml, array V3.1, average of triplicates
Experimental: (§1) Purified CCL1 and CCL2 were fluorescently labeled with Alexa Fluor 488 (Invitrogen) according to the manufacturer's protocol and used (at a final concentration of 200 µg/ml) to probe versions 4.2 and 3.1, respectively, of the mammalian glycan array offered by Core H of the Consortium for Functional Glycomics (CFG).

CCL1 = assay: Glycan array analysis of CCL1 (CFG mammalian glycan array V4.2); assay type: binding, Coprinopsis cinerea; conditions: Alexa Fluor 488 labeled CCL1 200 µg/ml, array V4.2, average of triplicates
Experimental: as §1

[1] = ligand Glc1,3Man1,2Man1,2Man; ref 2 of Table S6 (Kozlov et al. 2010); cited from earlier work
[2] = parameters: method as in ref 3 of Table S6 (Gupta et al. 2008); conditions: ligand Glc1,3Man1,2ManOMe; ref 3 of Table S6 (Gupta et al. 2008); cited from earlier work
CCL2 wild-type [3] = target: T1, CCL2 wild-type (Coprinopsis cinerea, UniProt B3GA02); assay type: binding
T1 sequence (B3GA02 2-142 limits assumed): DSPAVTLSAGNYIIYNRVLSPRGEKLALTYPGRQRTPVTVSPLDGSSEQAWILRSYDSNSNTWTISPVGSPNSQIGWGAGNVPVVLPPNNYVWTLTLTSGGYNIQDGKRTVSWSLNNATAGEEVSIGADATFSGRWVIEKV

[4] = target: Cholera toxin B subunit (CTB); assay type: binding; conditions: read-out: KD [μmol]; cited from earlier work
CCL2 (Wild type) = target: T2, CCL2 (Wild type) (Coprinopsis cinerea, UniProt B3GA02); assay: biochemical; assay type: binding
T2 construct: recombinant from E. coli, eight N-terminal His-residues (His8), monomer
T2 sequence (B3GA02 2-142): as the sequence (B3GA02 2-142 limits assumed) above

MOA = assay: Literature thermodynamic binding data of lectin-carbohydrate interactions compiled in Table S6 for comparison; conditions not given; parameters: method as in values quoted from other papers; conditions: read-out: KD [μmol]; cited from earlier work
CCL2 wild-type [5] = target: T1, CCL2 wild-type; assay type: binding; remark: listed apart in the source
Calreticulin = assay: Literature thermodynamic binding data of lectin-carbohydrate interactions compiled in Table S6 for comparison; conditions not given; parameters: method as in values quoted from other papers; conditions: read-out: KD [μmol]; cited from earlier work
[6] = parameters: method as in ref 5 of Table S6 (Turnbull et al. 2004); conditions: ligand GM1os; ref 5 of Table S6 (Turnbull et al. 2004); cited from earlier work
WBA II = assay type: binding; conditions: read-out: KD [μmol]; cited from earlier work
ConA = assay: Literature thermodynamic binding data of lectin-carbohydrate interactions compiled in Table S6 for comparison; conditions not given; parameters: method as in values quoted from other papers; conditions: read-out: KD [μmol]; cited from earlier work
[7] = carbohydrate titrated to CCL2 wild-type

## CO[C@H]1O[C@H](CO)[C@H](O)[C@H](O)[C@H]1O [GalOMe, methyl galactopyranoside]
Jacalin
  Kd: 58000 nM

## CO[C@@H]1O[C@@H](C)[C@@H](O)[C@@H](O)[C@@H]1O [FucOMe, methyl fucopyranoside]
RSL
  Kd: 730 nM

## 6-H2PO3Man-Sp8
CCL2
  RFU (relative fluorescence units): 118.9 RFU
CCL1
  RFU (relative fluorescence units): 3 RFU

## [3OSO3]Gal1-3GalNAc-Sp8
CCL2
  RFU (relative fluorescence units): 216.8 RFU
CCL1
  RFU (relative fluorescence units): 118 RFU

## [3OSO3][6OSO3]Gal1-4[6OSO3]GlcNAc-Sp0
CCL2
  RFU (relative fluorescence units): 367.7 RFU
CCL1
  RFU (relative fluorescence units): 3 RFU

## [6OSO3]Gal1-4[6OSO3]Glc-Sp8
CCL2
  RFU (relative fluorescence units): 298.1 RFU
CCL1
  RFU (relative fluorescence units): 20 RFU

## [4OSO3]Gal1-4GlcNAc-Sp8
CCL2
  RFU (relative fluorescence units): 350.4 RFU
CCL1
  RFU (relative fluorescence units): 17 RFU

## Calreticulin
[1]
  –TΔS: 3.75 kcal/mol
  –ΔH: 12 kcal/mol
[2]
  –TΔS: -0.813 kcal/mol
  –ΔH: 7.15 kcal/mol

## CO[C@@H]1O[C@H](CO)[C@@H](O[C@@H]2O[C@H](CO)[C@H](O)[C@H](O)[C@H]2O)[C@H](O[C@@H]2O[C@@H](C)[C@@H](O)[C@@H](O)[C@@H]2O)[C@H]1NC(C)=O [Galβ1,4[Fucα1,3]GlcNAcβ1-OMe]
CCL2 wild-type [3]
  drop in affinity: ~300 fold

## CC(=O)N[C@H]1[C@H](O[C@@H]2[C@H](O[C@]3(C(=O)O)C[C@H](O)[C@@H](NC(C)=O)[C@H]([C@H](O)[C@H](O)CO)O3)[C@@H](O)[C@H](O[C@H]3[C@H](O)[C@@H](O)C(O)O[C@@H]3CO)O[C@@H]2CO)O[C@H](CO)[C@H](O)[C@@H]1O[C@@H]1O[C@H](CO)[C@H](O)[C@H](O)[C@H]1O (some centres unmarked) [GM1os, GM1 ganglioside oligosaccharide]
[4]
  Kd: 43 nM

## CO[C@@H]1O[C@H](CO)[C@@H](O)[C@H](O[C@@H]2O[C@@H](C)[C@@H](O)[C@@H](O)[C@@H]2O)[C@H]1NC(C)=O [Fucα1,3GlcNAc-OMe, Fucα1,3GlcNAc methyl glycoside]
CCL2 (Wild type)
  Kd: > 500000 nM

## C[C@@H]1O[C@@H](O[C@H]2C(O)O[C@H](CO)[C@H](O)[C@@H]2O[C@H]2O[C@H](CO)[C@H](O)[C@H](O)[C@H]2O)[C@@H](O)[C@H](O)[C@@H]1O (some centres unmarked) [Galα1,3[Fucα1,2]Gal, blood group B trisaccharide]
MOA
  Kd: 36000 nM

## Neu5Acα2,3Galβ1,4Glc
CCL2 wild-type [5]; [7]
  NMR titration: no binding

## Neu5Ac2-6Gal1-4GlcNAc1-2Man1-3(Neu5Ac2-6Gal1-4GlcNAc1-2Man1-6)Man1-4GlcNAc1-4GlcNAc-Sp12
CCL2
  RFU (relative fluorescence units): 183.9 RFU
CCL1
  RFU (relative fluorescence units): 122 RFU

## Man1-3(Man1-6)Man1-4GlcNAc1-4GlcNAc-Sp13
CCL2
  RFU (relative fluorescence units): 525.3 RFU
CCL1
  RFU (relative fluorescence units): 116 RFU

## [3OSO3][6OSO3]Gal1-4GlcNAc-Sp0
CCL2
  RFU (relative fluorescence units): 193.4 RFU
CCL1
  RFU (relative fluorescence units): 25 RFU

## OC[C@H]1O[C@H](O[C@@H]2[C@H](O)[C@@H](O[C@@H]3[C@@H](O[C@@H]4C(O)O[C@H](CO)[C@@H](O)[C@@H]4O)O[C@H](CO)[C@@H](O)[C@@H]3O)O[C@H](CO)[C@H]2O)[C@H](O)[C@@H](O)[C@@H]1O (some centres unmarked) [Glcα1,3Manα1,2Manα1,2Man, Glcα1,3Manα1,2Manα1,2Man tetrasaccharide]
Calreticulin
  Kd: 770 nM

## C[C@@H]1O[C@@H](O[C@H]2[C@H](O[C@H]3[C@H](O)[C@@H](O)C(O)O[C@@H]3CO)O[C@H](CO)[C@H](O)[C@@H]2O)[C@@H](O)[C@H](O)[C@@H]1O (some centres unmarked) [2-Fucosyllactose, 2'-fucosyllactose]
RSL
  Kd: 250 nM

## CO[C@H]1O[C@H](CO)[C@@H](O)[C@H](O)[C@@H]1O[C@H]1O[C@H](CO)[C@@H](O)[C@H](O[C@H]2O[C@H](CO)[C@@H](O)[C@H](O)[C@H]2O)[C@@H]1O [Glc1,3Man1,2ManOMe, Glcα1,3Manα1,2Manα-OMe (methyl glycoside)]
Calreticulin
  Kd: 1800 nM

## CC(=O)NC1C(OC2C(CO)OC(O)C(O)C2O)OC(CO)C(OC2OC(CO)C(O)C(O)C2O)C1OC1OC(C)C(O)C(O)C1O (centres unmarked) [Galβ1,4[Fucα1,3]GlcNAcβ1,4Gal]
CCL2 wild-type [5]
  NMR titration: large chemical shift deviations, slow to intermediate exchange

## Cholera toxin B subunit (CTB): cholera-toxin B subdomain
[6]
  –TΔS: 7.36 kcal/mol
  –ΔH: 17.3 kcal/mol

## CC(=O)N[C@H]1[C@H](O[C@H]2[C@H](O[C@@H]3O[C@@H](C)[C@@H](O)[C@@H](O)[C@@H]3O)[C@@H](NC(C)=O)[C@H](OCCCCCC(=O)O)O[C@@H]2CO)O[C@H](CO)[C@@H](O)[C@@H]1O [GlcNAcβ1,4[Fucα1,3]GlcNAcβ1-sp, GlcNAcβ1,4[Fucα1,3]GlcNAcβ-O(CH2)5COONa]
CCL2 wild-type [3]
  ΔH: -11.9 kcal/mol
  −TΔS: 3.9 kcal/mol
CCL2 wild-type [5]; [7]
  NMR titration: large chemical shift deviations, slow exchange

## [3OSO3]Gal1-4Glc-Sp8
CCL2
  RFU (relative fluorescence units): 152.3 RFU
CCL1
  RFU (relative fluorescence units): 29 RFU

## GlcNAc1-2Man1-3(GlcNAc1-2Man1-6)Man1-4GlcNAc1-4GlcNAc-Sp13
CCL2
  RFU (relative fluorescence units): 674.3 RFU
CCL1
  RFU (relative fluorescence units): 68 RFU

## [3OSO3]Gal1-4[6OSO3]GlcNAc-Sp8
CCL2
  RFU (relative fluorescence units): 101.0 RFU
CCL1
  RFU (relative fluorescence units): 333 RFU

## CO[C@@H]1O[C@H](CO)[C@@H](O)[C@H](O[C@@H]2O[C@@H](C)[C@@H](O)[C@@H](O)[C@@H]2O)[C@H]1NC(C)=O [Fucα1,3GlcNAc-OMe]
CCL2 wild-type [5]
  NMR titration: no binding

## -L-Fuc–Sp9
CCL2
  RFU (relative fluorescence units): 136.8 RFU

## CO[C@@H]1O[C@H](CO)[C@@H](O[C@@H]2O[C@H](CO)[C@H](O)[C@H](O)[C@H]2O[C@@H]2O[C@@H](C)[C@@H](O)[C@@H](O)[C@@H]2O)[C@H](O)[C@H]1NC(C)=O [Fuc1,2Gal1,4GlcNAcOMe, Fucα1,2Galβ1,4GlcNAc methyl glycoside]
WBA II
  Kd: 3200 nM

## [3OSO3]Gal1-4GlcNAc-Sp8
CCL2
  RFU (relative fluorescence units): 110.8 RFU
CCL1
  RFU (relative fluorescence units): 110 RFU

## CO[C@H]1O[C@H](CO[C@H]2O[C@H](CO)[C@@H](O)[C@H](O)[C@@H]2O)[C@@H](O)[C@H](O[C@H]2O[C@H](CO)[C@@H](O)[C@H](O)[C@@H]2O)[C@@H]1O [Man1,6[Man1,3]ManOMe, Manα1,6[Manα1,3]Man methyl glycoside]
ConA
  Kd: 2000 nM

## [6OSO3]GlcNAc–Sp8
CCL2
  RFU (relative fluorescence units): 141.7 RFU

## CO[C@@H]1O[C@H](CO)[C@@H](O[C@@H]2O[C@H](CO)[C@H](O)[C@H](O)[C@H]2O)[C@H](O[C@@H]2O[C@@H](C)[C@@H](O)[C@@H](O)[C@@H]2O)[C@H]1NC(C)=O [Galβ1,4[Fucα1,3]GlcNAcβ1-OMe, Lewis X trisaccharide methyl glycoside]
CCL2 (Wild type)
  Kd: 456000 nM

## -Neu5Ac–Sp8
CCL2
  RFU (relative fluorescence units): 247.4 RFU

## -D-Gal–Sp8
CCL2
  RFU (relative fluorescence units): 280.7 RFU and 194.7 RFU

## C[C@@H]1O[C@@H](OCCCN)[C@@H](O)[C@H](O)[C@@H]1O [-L-Fuc–Sp8]
CCL2
  RFU (relative fluorescence units): 416.6 RFU

## NCCCO[C@H]1O[C@H](CO)[C@@H](O)[C@H](O)[C@@H]1O [-D-Man–Sp8]
CCL2
  RFU (relative fluorescence units): 152.9 RFU and 130.5 RFU

## [3OSO3]Gal1-3(Fuc1-4)GlcNAc–Sp8
CCL2
  RFU (relative fluorescence units): 628.7 RFU

## CC(=O)N[C@H]1C(O)O[C@H](CO)[C@@H](O[C@@H]2O[C@H](CO)[C@H](O)[C@H](O[C@H]3O[C@H](CO)[C@H](O)[C@H](O)[C@H]3O)[C@H]2O)[C@@H]1O (some centres unmarked) [Gal1,3Gal1,4GlcNAc, Galα1,3Galβ1,4GlcNAc]
MOA
  Kd: 42300 nM

## GlcNAc1-3(GlcNAc1-4)(GlcNAc1-6)GlcNAc-Sp8
CCL2
  RFU (relative fluorescence units): 103.1 RFU
CCL1
  RFU (relative fluorescence units): 264 RFU

## [3OSO3]Gal1-4(6OSO3)Glc–Sp8
CCL2
  RFU (relative fluorescence units): 1039.1 RFU

## 9NAcNeu5Ac-Sp8
CCL2
  RFU (relative fluorescence units): 8595.4 RFU

## [4OSO3][6OSO3]Gal1-4GlcNAc-Sp0
CCL2
  RFU (relative fluorescence units): 222.7 RFU
CCL1
  RFU (relative fluorescence units): 5 RFU
